Tests used:
RyR1 [1] = biological target: T1, RyR1 (Sus scrofa, UniProt P16960); assay: FLT-FRET between D-FKBP and A-CaM bound to RyR1 in skeletal SR membranes (HTS and dose-response); type: binding, porcine; parameters: RyR1 in skeletal SR membranes, and RyR2 in cardiac SR membranes; from tissue; host or cells: porcine longissimus dorsi muscle (heavy SR vesicles); details: for Hit in primary FLT-FRET HTS of LOPAC (FRET altered by > 4 SD vs DMSO): 10 μM compound, 2-hour incubation, 0.3 μM A-CaM, 1536-well; for Hit in primary FLT-FRET HTS of LOPAC (FRET altered by > 4 SD vs DMSO) / IC50: 30 nM Ca2+; for Influence of GSSG vs GSH on the FRET dose-response effect: 5 mM GSSG vs 5 mM GSH; for Influence of GSSG vs GSH on the FRET dose-response effect / Compound concentration at which FRET is abolished: isoform not given (figures show skeletal and cardiac SR); for Effect on FRET: biphasic dose-response, isoform not stated; for Compound concentration at which FRET is abolished: FRET dose-response; for IC50: RyR1, skeletal SR
Description: To confer compatibility with current HTS standards in industrial drug discovery facilities, we miniaturized our screening format from the previously established 384-well plates, requiring 50 μL sample per well[19], to 1536-well plates, requiring 5 μL sample per well. The complete 1280-compound library of pharmacologically active compounds (LOPAC) was applied as 5 nL/well in 40 columns of one 1536-well black-wall/black-bottom plate, with the remaining 8 columns loaded with 5 nL/well of DMSO, as no-drug controls. For each run of the screen, three plates were loaded with either (1) unlabeled HSR, or (2) HSR pre-incubated with donor-FKBP (D-FKBP; donor-only sample), or (3) donor-only sample that was additionally incubated with 0.3 μM acceptor-CaM (A-CaM) for 60 min prior to loading on the plate (donor-acceptor sample). This sub-saturating concentration of A-CaM was used to provide a readout that is sensitive to library compounds that may increase or decrease CaM binding affinity to RyR. To promote a homogenous population of RyR1 resembling that associated with myopathies, final assay conditions also included 30 nM Ca^2+ to represent resting (muscle relaxing) Ca^2+, and 5 mM oxidized glutathione (GSSG), which exaggerates the conditions associated with oxidative stress.
We acquired both FLT waveforms and fluorescence spectra, as previously described[19],[33],[34]. As previously observed, Hit effects were greatest following a 2-hour incubation with the library compounds (Supplementary Fig. 1a). As a result, all FRET results shown in Figs. 1 and 2, and Supplementary Fig. 2 are reported from the 2-hour incubation.
(§1) Necessary counter-screens to our pathological RyR1 conditions include evaluating compound effects in healthy conditions and on the cardiac isoform, RyR2. Using the same FRET assay as in HTS, we tested the dose response of key Hits from this screen and the previously HTS-identified RyR1 inhibitor, chloroxine, on healthy (5 mM GSH) and pathological (5 mM GSSG) conditions for both RyR1 in skeletal SR membranes, and RyR2 in cardiac SR membranes.
(§2) Skeletal HSR and cardiac CSR (0.4 mg/ml) membranes were independently pre-incubated with 60 nM D-FKBP, for 90 min, at 37 °C, in a solution containing 150 mM KCl, 5 mM GSH, 0.1 mg/mL BSA, 1 µg/mL Aprotinin/Leupeptin, 1 mM DTT and 20 mM PIPES (pH 7.0). To remove unbound D-FKBP, the SR membranes were spun down at 110,000 × g for 20 min, and then resuspended to 1 mg/mL (skeletal HSR) and 2 mg/mL (cardiac CSR) in binding buffer consisting of 150 mM KCl, 5 mM GSSG, 0.1 mg/mL BSA, 1μg/mL Aprotinin/Leupeptin and 20 mM PIPES, pH 7.0. These samples were then incubated with indicated [A-CaM] for 30 min at 22 °C in binding buffer containing 0.065 mM CaCl2 to give 30 nM free Ca^2+ in the presence of 1 mM EGTA (calculated by MaxChelator). This labeled SR sample was applied to the assay plates in 5 μL aliquots using a Multidrop™ Combi reagent dispenser (Thermo Scientific) with a standard-tube. An additional set of the assay plates were loaded with skeletal HSR or cardiac CSR labeled with only D-FKBP (no added A-CaM).
(§3) FLT measurements were conducted in a top-read FLT-PR designed and built by Fluorescence Innovations, Inc[33]. AF488 donor fluorescence was excited with a 473-nm microchip laser from Concepts Research Corporation (Belgium, WI), and emission was acquired with 490-nm long-pass and 517/20-nm band-pass filters (Semrock, Rochester, NY).
FLT waveforms for each well were fit based on a one-exponential decay function using least-squares minimization global-analysis software (Fluorescence Innovations, Inc.), as previously described[19],[33]. FRET efficiency (E) was determined as the fractional decrease of donor FLT (τD), due to the presence of acceptor fluorophore (τDA), using the following equation:1 E=1−τDA/τD, […]

RyR1 [2] = biological target: T1, RyR1; assay: [3H]ryanodine binding to skeletal SR vesicles; type: biochemical, porcine; parameters: RyR1 in skeletal SR membranes, and RyR2 in cardiac SR membranes; from tissue; host or cells: porcine longissimus dorsi muscle (heavy SR vesicles); details: 0-20 μM compound, Supplementary Fig. 5
Description: To evaluate the functional impact of compounds identified through our FRET-based screen, we first used [^3H]ryanodine binding assays. The level of [^3H]ryanodine binding to RyRs in SR membranes is a well-established index of the RyR channel activity. Given the role of CaM binding in our FRET readout, we investigated whether CaM influences the functional effect of the Hit compounds by carrying out [^3H]ryanodine binding assays in the absence and presence of CaM (300 nM).
Crude sarcoplasmic reticulum (CSR) vesicles were isolated from porcine longissimus dorsi muscle and porcine cardiac left ventricle tissue by differential centrifugation of homogenized tissue. HSR vesicles, which are enriched in RyR1, were isolated by fractionation of crude skeletal SR vesicles using a discontinuous sucrose gradient. All vesicles were flash-frozen and stored at −80 °C. Immediately prior to the fluorescence or [^3H]ryanodine binding studies described below, the SR vesicles were stripped of residual endogenous CaM by incubation with a peptide derived from the CaM binding domain of myosin light chain kinase, followed by sedimentation.
In 96-well plates, HSR vesicles (1 mg/ml) and cardiac CSR vesicles (3 mg/mL) were pre-incubated with 0.02% DMSO or Hit compound, with or without 300 nM CaM, for 30 min at 22 °C in a solution containing 150 mM KCl, 5 mM GSSG, 1 µg/mL Aprotinin/Leupeptin, 1 mM EGTA, and 65 µM or 1.02 mM CaCl2 (as determined by MaxChelator to yield 30 nM or 30 μM of free Ca^2+, respectively), 0.1 mg/mL BSA and 20 mM K-PIPES (pH 7.0). Non-specific and maximal [^3H]ryanodine binding to SR were separately assessed by addition of 40 µM non-radioactively labeled ryanodine or 5 mM Adenylyl-imidodiphosphate, respectively. Such control samples were each distributed over 4 wells/plate. Binding of [^3H]ryanodine (10 and 15 nM for cardiac and skeletal SR, respectively) was determined after a 3-h incubation (37 °C) and filtration through grade GF/B Glass Microfiber filters (Brandel Inc., Gaithersburg, MD, US) using a Brandel Harvester. In 4 mL of Ecolite Scintillation cocktail (MP biomedicals, Solon, OH, USA), [^3H] on filter was counted using a Beckman LS6000 scintillation counter (Fullerton, CA).

[3] = tested on: RyR1 Ca^2+ leak in human skinned skeletal muscle fibers; assay: t-system Ca2+ readout of RyR1 Ca2+ leak in human mechanically skinned skeletal muscle fibers; details: 1 mM
RyR2 [4] = biological target: T2, RyR2 (Sus scrofa, UniProt A0A5G2R1W3); assay: F-FKBP binding to RyR2 by co-sedimentation with cardiac SR membranes; parameters: using co-sedimentation with pig skeletal and cardiac SR membranes; from tissue; host or cells: pig cardiac muscle (crude SR membranes); species or system pig; details: RyR2, 10 μM Hit, 30 nM Ca2+, 5 mM GSSG or GSH
Description: (§4) The Hit-induced effect on FRET between D-FKBP and A-CaM most likely results from one or the combination of factors, including a shift in CaM and/or FKBP12.6 binding, and/or structure of the RyR complex that shifts the D-A distance. Under the same assay conditions as in the primary screen, we assessed the effect of 10 μM Hit on fluorescent FKBP12.6 (F-FKBP) binding to RyRs, using co-sedimentation with pig skeletal and cardiac SR membranes.
(§5) Supplementary Fig. 3 Effect of HTS Hits on F-FKBP binding to a) RyR1 in skeletal HSR membranes, and b) RyR2
(§6) in cardiac CSR membranes at 30 nM Ca2+ in the presence of 5 mM GSSG or GSH. Results are represented as individual
(§7) data points and means ± SEM, n = 4-5. *P < 0.05 by 2-sided Student’s unpaired t-test. […]

RyR1 [5] = biological target: T1, RyR1; assay: F-FKBP binding to RyR1 by co-sedimentation with skeletal SR membranes; parameters: using co-sedimentation with pig skeletal and cardiac SR membranes; from tissue; host or cells: pig skeletal muscle (heavy SR membranes); species or system pig; details: RyR1, 10 μM Hit, 30 nM Ca2+, 5 mM GSSG or GSH
Description: as §4, §5, §6, §7

RyR2 [6] = biological target: T2, RyR2; assay: FLT-FRET between D-FKBP and A-CaM bound to RyR2 in cardiac SR membranes (dose-response); type: binding, porcine; parameters: RyR1 in skeletal SR membranes, and RyR2 in cardiac SR membranes; from tissue; host or cells: porcine cardiac left ventricle (crude SR vesicles); details: RyR2, cardiac SR, 30 nM Ca2+
Description: as §1, §2, §3
FLT waveforms for each well were fit based on a one-exponential decay function using least-squares minimization global-analysis software (Fluorescence Innovations, Inc.), as previously described[19],[33]. FRET efficiency (E) was determined as the fractional decrease of donor FLT (τD), due to the presence of acceptor fluorophore (τDA), using the following equation:1 E=1−τDA/τD,

T1 sequence (P16960 whole entry, canonical isoform): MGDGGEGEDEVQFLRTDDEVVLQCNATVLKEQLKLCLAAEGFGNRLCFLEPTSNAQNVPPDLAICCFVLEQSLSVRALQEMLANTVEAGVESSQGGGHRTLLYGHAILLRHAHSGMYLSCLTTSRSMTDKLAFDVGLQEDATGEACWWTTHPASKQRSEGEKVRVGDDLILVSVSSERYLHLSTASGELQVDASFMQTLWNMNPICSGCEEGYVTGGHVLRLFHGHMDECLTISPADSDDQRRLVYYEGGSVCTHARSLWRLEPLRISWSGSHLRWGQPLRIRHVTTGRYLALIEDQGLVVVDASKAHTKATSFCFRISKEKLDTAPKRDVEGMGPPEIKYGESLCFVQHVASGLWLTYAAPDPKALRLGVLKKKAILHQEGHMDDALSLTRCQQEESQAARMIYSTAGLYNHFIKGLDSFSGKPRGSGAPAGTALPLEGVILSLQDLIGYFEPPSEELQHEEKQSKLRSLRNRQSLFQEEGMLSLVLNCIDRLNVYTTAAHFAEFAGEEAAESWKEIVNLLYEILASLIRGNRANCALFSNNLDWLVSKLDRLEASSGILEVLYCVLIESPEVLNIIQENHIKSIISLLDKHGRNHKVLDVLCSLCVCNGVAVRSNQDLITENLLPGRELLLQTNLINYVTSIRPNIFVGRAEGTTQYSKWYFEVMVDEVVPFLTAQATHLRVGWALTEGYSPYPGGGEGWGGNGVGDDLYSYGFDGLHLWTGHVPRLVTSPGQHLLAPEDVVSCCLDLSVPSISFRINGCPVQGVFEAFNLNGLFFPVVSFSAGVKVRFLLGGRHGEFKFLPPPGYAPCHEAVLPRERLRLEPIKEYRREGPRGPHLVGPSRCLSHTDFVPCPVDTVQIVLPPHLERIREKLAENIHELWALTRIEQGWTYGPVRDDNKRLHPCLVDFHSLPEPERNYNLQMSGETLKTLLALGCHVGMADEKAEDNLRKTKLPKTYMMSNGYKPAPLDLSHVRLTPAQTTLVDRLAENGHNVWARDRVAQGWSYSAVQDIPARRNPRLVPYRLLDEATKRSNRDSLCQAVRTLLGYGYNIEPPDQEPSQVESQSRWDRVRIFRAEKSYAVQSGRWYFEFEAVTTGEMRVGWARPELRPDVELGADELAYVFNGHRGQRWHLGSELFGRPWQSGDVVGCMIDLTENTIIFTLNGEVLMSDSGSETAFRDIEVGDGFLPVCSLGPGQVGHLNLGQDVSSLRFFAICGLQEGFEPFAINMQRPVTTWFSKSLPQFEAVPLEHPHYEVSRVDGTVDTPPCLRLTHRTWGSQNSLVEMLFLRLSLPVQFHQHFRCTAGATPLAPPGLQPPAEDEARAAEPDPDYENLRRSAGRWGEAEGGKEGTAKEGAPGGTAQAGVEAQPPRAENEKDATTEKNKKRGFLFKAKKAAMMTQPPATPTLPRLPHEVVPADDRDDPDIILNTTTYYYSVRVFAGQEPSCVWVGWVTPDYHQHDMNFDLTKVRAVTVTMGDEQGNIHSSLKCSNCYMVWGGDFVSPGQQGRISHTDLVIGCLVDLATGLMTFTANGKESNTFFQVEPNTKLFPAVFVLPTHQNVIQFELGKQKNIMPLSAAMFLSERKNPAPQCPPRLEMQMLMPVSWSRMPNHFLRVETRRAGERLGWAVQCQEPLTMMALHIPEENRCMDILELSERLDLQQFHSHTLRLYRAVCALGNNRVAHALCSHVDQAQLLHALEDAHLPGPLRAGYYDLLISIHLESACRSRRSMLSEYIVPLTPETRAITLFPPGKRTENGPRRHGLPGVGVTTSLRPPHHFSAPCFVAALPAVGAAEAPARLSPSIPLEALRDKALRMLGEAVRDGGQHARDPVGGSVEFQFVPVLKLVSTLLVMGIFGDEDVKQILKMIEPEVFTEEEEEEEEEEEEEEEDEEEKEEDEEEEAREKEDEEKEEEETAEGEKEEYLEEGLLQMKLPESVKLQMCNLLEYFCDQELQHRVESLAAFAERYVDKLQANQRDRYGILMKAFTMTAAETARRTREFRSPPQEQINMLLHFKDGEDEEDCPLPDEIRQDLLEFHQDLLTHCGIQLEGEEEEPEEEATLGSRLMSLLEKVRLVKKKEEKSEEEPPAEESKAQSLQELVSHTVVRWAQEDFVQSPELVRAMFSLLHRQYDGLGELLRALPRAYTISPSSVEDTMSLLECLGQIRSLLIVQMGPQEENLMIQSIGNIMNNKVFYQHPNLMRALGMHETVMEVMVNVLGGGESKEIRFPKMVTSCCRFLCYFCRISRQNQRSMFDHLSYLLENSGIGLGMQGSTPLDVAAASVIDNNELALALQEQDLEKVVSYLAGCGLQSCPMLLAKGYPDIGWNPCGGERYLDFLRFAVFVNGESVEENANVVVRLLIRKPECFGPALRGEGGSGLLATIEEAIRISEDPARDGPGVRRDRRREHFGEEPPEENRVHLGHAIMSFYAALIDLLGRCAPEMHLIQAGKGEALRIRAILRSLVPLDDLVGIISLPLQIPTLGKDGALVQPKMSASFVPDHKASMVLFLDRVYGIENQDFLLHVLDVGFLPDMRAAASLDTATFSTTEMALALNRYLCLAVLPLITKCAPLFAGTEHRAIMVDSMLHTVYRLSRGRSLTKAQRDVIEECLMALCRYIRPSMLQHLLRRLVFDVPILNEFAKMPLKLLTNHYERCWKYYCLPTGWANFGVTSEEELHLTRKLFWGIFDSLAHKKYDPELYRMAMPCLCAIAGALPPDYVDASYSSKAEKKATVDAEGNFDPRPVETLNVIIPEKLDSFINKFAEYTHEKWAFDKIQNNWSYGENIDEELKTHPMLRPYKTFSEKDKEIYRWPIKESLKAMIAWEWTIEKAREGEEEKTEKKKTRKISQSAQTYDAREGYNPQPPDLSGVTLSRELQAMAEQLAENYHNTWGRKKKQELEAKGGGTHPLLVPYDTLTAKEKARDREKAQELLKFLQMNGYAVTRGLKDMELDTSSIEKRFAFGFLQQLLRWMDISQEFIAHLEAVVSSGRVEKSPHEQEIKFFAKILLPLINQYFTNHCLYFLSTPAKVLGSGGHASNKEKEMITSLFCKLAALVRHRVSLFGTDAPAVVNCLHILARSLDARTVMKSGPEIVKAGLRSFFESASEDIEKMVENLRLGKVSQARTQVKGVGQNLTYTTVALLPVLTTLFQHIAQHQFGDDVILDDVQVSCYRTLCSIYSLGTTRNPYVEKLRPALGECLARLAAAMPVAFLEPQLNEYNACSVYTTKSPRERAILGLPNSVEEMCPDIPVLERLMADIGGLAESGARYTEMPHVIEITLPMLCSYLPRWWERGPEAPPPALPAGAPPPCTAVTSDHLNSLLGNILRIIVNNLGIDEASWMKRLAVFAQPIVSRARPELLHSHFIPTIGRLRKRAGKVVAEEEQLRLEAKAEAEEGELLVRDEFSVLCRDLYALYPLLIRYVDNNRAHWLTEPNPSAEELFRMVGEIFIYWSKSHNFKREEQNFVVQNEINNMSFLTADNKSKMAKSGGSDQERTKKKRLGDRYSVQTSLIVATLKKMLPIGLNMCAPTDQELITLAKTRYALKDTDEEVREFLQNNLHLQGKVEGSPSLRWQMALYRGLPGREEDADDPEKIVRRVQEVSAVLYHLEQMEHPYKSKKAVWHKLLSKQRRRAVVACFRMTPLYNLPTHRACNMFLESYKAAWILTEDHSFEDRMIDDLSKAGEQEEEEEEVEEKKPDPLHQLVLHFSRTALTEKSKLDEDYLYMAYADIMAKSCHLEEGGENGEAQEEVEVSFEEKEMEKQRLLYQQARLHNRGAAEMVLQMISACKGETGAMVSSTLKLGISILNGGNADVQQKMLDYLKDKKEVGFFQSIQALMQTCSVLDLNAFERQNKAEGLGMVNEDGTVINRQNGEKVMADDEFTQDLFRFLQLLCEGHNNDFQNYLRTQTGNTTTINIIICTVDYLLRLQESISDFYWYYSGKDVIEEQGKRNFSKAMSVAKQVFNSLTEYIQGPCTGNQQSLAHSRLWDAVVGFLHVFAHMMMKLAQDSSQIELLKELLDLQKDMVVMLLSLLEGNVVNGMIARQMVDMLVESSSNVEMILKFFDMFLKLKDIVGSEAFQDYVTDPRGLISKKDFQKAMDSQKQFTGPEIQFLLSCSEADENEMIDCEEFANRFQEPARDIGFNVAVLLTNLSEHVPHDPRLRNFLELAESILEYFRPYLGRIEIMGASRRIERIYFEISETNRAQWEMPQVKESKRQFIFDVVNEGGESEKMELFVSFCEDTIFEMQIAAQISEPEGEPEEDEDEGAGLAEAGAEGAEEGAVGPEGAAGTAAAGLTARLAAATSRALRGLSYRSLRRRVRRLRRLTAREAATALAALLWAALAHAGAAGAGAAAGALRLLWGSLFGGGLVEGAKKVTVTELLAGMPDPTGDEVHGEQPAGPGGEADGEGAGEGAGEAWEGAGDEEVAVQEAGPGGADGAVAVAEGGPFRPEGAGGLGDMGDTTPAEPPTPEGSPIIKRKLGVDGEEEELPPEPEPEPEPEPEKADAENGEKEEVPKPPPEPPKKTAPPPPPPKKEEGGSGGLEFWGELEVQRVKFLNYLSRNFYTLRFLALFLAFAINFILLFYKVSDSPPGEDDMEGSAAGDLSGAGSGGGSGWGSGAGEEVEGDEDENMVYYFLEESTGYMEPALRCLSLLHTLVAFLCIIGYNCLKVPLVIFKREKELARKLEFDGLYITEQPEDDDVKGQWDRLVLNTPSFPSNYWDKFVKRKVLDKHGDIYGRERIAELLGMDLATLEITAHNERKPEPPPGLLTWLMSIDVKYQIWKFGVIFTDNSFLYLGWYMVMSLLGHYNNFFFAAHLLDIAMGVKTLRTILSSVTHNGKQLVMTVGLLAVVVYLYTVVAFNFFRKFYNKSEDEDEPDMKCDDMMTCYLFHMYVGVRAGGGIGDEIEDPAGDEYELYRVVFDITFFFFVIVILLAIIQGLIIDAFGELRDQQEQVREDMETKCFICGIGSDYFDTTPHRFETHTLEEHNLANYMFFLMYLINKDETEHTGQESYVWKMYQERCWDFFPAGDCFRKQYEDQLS

## C[C@H](O)[C@H](O)[C@H]1CNc2nc(N)[nH]c(=O)c2N1 [(6 R)-BH4]
RyR1 [1]; 5 mM GSSG
  Hit in primary FLT-FRET HTS of LOPAC (FRET altered by > 4 SD vs DMSO): observe

## Oc1ccc2ccccc2c1SSc1c(O)ccc2ccccc12 [IPA-3]
RyR1 [1]
  Influence of GSSG vs GSH on the FRET dose-response effect: more strongly decreased FRET in the presence of GSSG vs. GSH

## O=C(Nc1cccc(C(=O)Nc2ccc(S(=O)(=O)O)c3cc(S(=O)(=O)O)cc(S(=O)(=O)O)c23)c1)Nc1cccc(C(=O)Nc2ccc(S(=O)(=O)O)c3cc(S(=O)(=O)O)cc(S(=O)(=O)O)c23)c1 [NF023]
RyR1 [1]; 5 mM GSSG
  Hit in primary FLT-FRET HTS of LOPAC (FRET altered by > 4 SD vs DMSO): identified

## Nc1ccc(-c2nc3ccc(-c4nc5ccc(N)cc5[nH]4)cc3[nH]2)cc1 [Ro 90–7501]
RyR1 [1]
  Influence of GSSG vs GSH on the FRET dose-response effect: very similar FRET dose-response effects with GSSG or GSH
RyR1 [1]; micromolar [compound]
  Effect on FRET: decreased
RyR1 [1]; sub-micromolar [compound]
  Effect on FRET: increased
RyR1 [2]
  Effect on [3H]ryanodine binding: inhibited

## CN=c1nc(-c2ccccc2)n(-c2ccccc2)s1 [SCH-202676]
RyR1 [1]; 5 mM GSSG
  Hit in primary FLT-FRET HTS of LOPAC (FRET altered by > 4 SD vs DMSO): observe
RyR1 [1]
  Influence of GSSG vs GSH on the FRET dose-response effect: more strongly decreased FRET in the presence of GSSG vs. GSH

## CCCCNc1ccc(C(=O)OCCN(C)C)cc1 [Tetracaine, tetracaine]
[3]
  RyR inhibition (reference level of leak assay): full RyR inhibition

## O=C(O)C1=CC(=C(c2ccc(O)c(C(=O)O)c2)c2ccc(O)c(C(=O)O)c2)C=CC1=O [aurintricarboxylic acid]
RyR1 [1]; 5 mM GSSG
  Hit in primary FLT-FRET HTS of LOPAC (FRET altered by > 4 SD vs DMSO): observe
RyR1 [1]
  Compound concentration at which FRET is abolished: ≥ 10 µM
RyR1 [2]
  Effect on [3H]ryanodine binding: potent inhibitor

## N.N.[Cl][Pt][Cl] [cisplatin]
RyR1 [1]; 5 mM GSSG
  Hit in primary FLT-FRET HTS of LOPAC (FRET altered by > 4 SD vs DMSO): decrease in FRET
RyR1 [1]
  Influence of GSSG vs GSH on the FRET dose-response effect: more strongly decreased FRET in the presence of GSSG vs. GSH

## CCN(CC)C(=S)SSC(=S)N(CC)CC [disulfiram]
RyR1 [1]; 5 mM GSSG
  Hit in primary FLT-FRET HTS of LOPAC (FRET altered by > 4 SD vs DMSO): identified
RyR1 [1]
  Influence of GSSG vs GSH on the FRET dose-response effect: more strongly decreased FRET in the presence of GSSG vs. GSH

## Cc1ccc(C(=O)Nc2ccc(S(=O)(=O)O)c3cc(S(=O)(=O)O)cc(S(=O)(=O)O)c23)cc1NC(=O)c1cccc(NC(=O)Nc2cccc(C(=O)Nc3cc(C(=O)Nc4ccc(S(=O)(=O)O)c5cc(S(=O)(=O)O)cc(S(=O)(=O)O)c45)ccc3C)c2)c1 [suramin]
RyR2 [4]
  Decrease of F-FKBP binding: did not alter
RyR1 [5]
  Decrease of F-FKBP binding: did not alter
RyR2 [6]; 5 mM GSH
  IC50: 2.5 ± 0.3 µM
RyR2 [6]; 5 mM GSSG
  IC50: 2.4 ± 0.6 µM
RyR1 [1]; 5 mM GSSG
  Hit in primary FLT-FRET HTS of LOPAC (FRET altered by > 4 SD vs DMSO): identified
  IC50: 7.1 ± 0.5 µM
RyR1 [1]
  Influence of GSSG vs GSH on the FRET dose-response effect: not altered by GSH or GSSG
  Compound concentration at which FRET is abolished: ≤ 20 µM
RyR1 [1]; 5 mM GSH
  IC50: 5.9 ± 0.7 µM

## C=CC[C@@H]1/C=C(\C)C[C@H](C)C[C@H](OC)[C@H]2O[C@@](O)(C(=O)C(=O)N3CCCC[C@H]3C(=O)O[C@H](/C(C)=C/[C@@H]3CC[C@@H](O)[C@H](OC)C3)[C@H](C)[C@@H](O)CC1=O)[C@H](C)C[C@@H]2OC [tacrolimus]
RyR2 [4]
  Decrease of F-FKBP binding: 70%
RyR1 [5]
  Decrease of F-FKBP binding: 20%

## Reactive Blue
RyR1 [1]; 5 mM GSSG
  Hit in primary FLT-FRET HTS of LOPAC (FRET altered by > 4 SD vs DMSO): observe

— paper PMC7000700, “RyR1-targeted drug discovery pipeline integrating FRET-based high-throughput screening and human myofiber dynamic Ca^2+ assays” (Scientific Reports, 2020)
